pIC50: −log10 of the molar value. Structures can show the parent of a compound that is named as a salt.
Assays:
[1] = target: Ba/F3-Δ19del/T790M/C797S (Homo sapiens, UniProt P00533, T790M/C797S, cells depend on it, form not given); test: Ba/F3-Δ19del/T790M/C797S cells proliferation assay; assay type: cell-based; conditions: cell proliferation, 72 h, CellTiter Glo; class symbols; read-out: BaF3 Δ 19del/T790M/C797S IC50
Experimental: (§1) a) The medium was preheated in a 37 water bath in advance.
(§2) b) Remove the cryogenic vials from the liquid nitrogen tank, quickly put it into a 37° C. water bath, and completely melt it in 1 min.
(§3) c) Transfer the cell suspension to a 15 mL centrifuge tube containing 8 mL medium, centrifuge 1000 rpm, 5 min,
(§4) d) Discard the supernatant, resuspend the cells in 1 mL medium, and transfer to a 75 cm^2 flask containing 15 mL medium, culture the cells in an incubator at 37° C., 5% CO2.
(§5) a) The medium was preheated in a 37° C.; water bath in advance.
(§6) b) Collect cell to a 15 mL centrifuged tube, centrifuge at 1000 rpm for 5 min. Discard the supernatant, count, and make the cell density at 1×10^4 cells/mL, then place it in a 37° C., 5% CO2 incubator.
(§7) b) The above compound solution was diluted 1:20 times with culture medium to prepare a 10 fold working solution;
(§8) a) Take cells in log phase growth, centrifuge at 1000 rpm for 5 min, then resuspend the cells with culture medium, then count cells;
(§9) b) Cells were seeded to 96-well cell culture plate with density at 2000 cells/well;
(§10) The blank control well was a culture medium (0.5% DMSO);
(§11) b) The cells were incubated for an additional 72 h in the incubator.
(§12) a) Remove the 96-well cell culture plate and add 50 μl of CTG reagent (CellTiter Glo kit, promega, Cat #G7573).
(§13) b) Plate was shaked for 2 min and then let it cool for 10 min at room temperature.
(§14) c) The Luminescence signal value was read using a PerkinElmer reader.
(§15) Experimental Data Analysis
(§16) Data were analyzed using GraphPad Prism 6.0 software to obtain a fitted curve of compound activity.
(§17) Y=Bottom+(Top−Bottom)/(1+10^((Log IC50−X)*Hill Slope));
(§18) The cells proliferation assay results are expressed with IC50, shown as Table 2.

[2] = target: EGFR Δ19del/T790M/C797S (Homo sapiens, UniProt P00533, T790M/C797S, form not given); test: Kinase assay (mobility shift) for EGFR Δ19del/T790M/C797S; assay type: biochemical; conditions: read-out: EGFR Δ 19del/T790M/C797S IC50
Chain of EGFR Δ19del/T790M/C797S (P00533 with tags, fused parts or gaps DEL746-750/T790M/C797S, form open): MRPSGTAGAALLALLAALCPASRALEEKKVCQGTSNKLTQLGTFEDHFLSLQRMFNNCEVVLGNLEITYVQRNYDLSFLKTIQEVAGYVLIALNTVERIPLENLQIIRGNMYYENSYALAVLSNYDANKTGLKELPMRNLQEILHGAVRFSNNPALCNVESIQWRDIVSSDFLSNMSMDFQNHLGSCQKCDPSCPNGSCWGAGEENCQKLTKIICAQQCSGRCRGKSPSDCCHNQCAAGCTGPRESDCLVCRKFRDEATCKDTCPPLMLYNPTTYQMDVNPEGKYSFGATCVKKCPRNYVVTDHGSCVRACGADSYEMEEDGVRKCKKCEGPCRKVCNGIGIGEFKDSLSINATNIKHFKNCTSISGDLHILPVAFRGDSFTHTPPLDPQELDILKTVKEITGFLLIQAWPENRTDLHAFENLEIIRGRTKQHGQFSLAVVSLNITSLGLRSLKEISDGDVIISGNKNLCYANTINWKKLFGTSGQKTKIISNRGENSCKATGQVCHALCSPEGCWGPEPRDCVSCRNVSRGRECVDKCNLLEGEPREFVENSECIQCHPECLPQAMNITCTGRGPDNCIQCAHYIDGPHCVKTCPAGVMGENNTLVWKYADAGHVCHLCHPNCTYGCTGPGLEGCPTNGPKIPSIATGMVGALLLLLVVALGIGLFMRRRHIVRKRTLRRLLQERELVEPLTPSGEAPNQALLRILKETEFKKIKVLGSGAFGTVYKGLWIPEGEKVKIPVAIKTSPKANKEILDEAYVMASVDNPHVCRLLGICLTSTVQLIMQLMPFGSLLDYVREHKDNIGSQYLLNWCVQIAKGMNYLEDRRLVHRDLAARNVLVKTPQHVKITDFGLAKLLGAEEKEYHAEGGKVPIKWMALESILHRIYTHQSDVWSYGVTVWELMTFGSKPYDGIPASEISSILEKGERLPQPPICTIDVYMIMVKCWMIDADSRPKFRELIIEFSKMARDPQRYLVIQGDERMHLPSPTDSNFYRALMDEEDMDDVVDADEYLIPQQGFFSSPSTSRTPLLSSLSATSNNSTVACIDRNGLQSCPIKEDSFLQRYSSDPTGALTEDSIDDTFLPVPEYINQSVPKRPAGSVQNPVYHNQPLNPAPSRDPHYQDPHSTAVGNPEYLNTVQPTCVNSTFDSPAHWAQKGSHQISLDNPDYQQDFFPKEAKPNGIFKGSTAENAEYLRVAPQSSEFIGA
Experimental: (§19) Enzyme reaction protocol are as followed:
(§20) 1. Preparing 1* Kinase buffer as followed.
(§21) 2. Preparing Compound Concentration Gradient: Compounds were tested at a concentration of 300 nM, diluted to 100-fold final concentration in 100% DMSO solution in 96-well plates, and compounds were diluted 3 times with Precision, 10 concentrations. Each concentration of the compound was then further diluted to a 5-fold final concentration of the intermediate dilution solution using 1* Kinase buffer.
(§22) 3. 5 μL of each of the prepared intermediate dilution compounds was separately added to the compound wells of the 384-well plate, and each concentration was tested for duplicate wells; 5 μL of 5% DMSO was added to the negative control wells and the positive control wells, respectively.
(§23) 4. 2.5-fold final concentration of the kinase solution was prepared using 1*Kinase buffer.
(§24) 6. Centrifuge at 1000 rpm for 30 seconds, shake the reaction plate and incubate for 10 minutes at room temperature.
(§25) 8. 10 μL of a 2.5-fold final concentration of a mixed solution of ATP and a substrate was added to initiate the reaction.
(§26) 9. Centrifuge the 384-well plate at 1000 rpm for 30 seconds, mix by shaking, and incubate at room temperature for the corresponding time.
(§27) 10. Add 30 μL of the stop solution to stop the kinase reaction, centrifuge at 1000 rpm for 30 seconds, and mix by shaking.
(§28) 11. Read the conversion rate with Caliper EZ Reader.
(§29) Convert conversion values to inhibition values:
(§30) Percent inhibition=(max−conversion % sample)/(max−min)*100.
(§31) “max” stands for the mean value of the positive control well ratio; “min” stands for the mean value of the negative control well; conversion % sample: sample conversion reading.
(§32) Fit the data in log(inhibitor) vs. response Variable slope of GraphPad Prism 5 to obtain IC50 values.
(§33) Equation used is: Y=Bottom+(Top−Bottom)/(1+(IC50/X)*HillSlope)

[3] = system: HCC827(Δ19del); test: HCC827 cells proliferation assay; assay type: cell-based; conditions: Homo sapiens, HCC827; cell proliferation, 72 h, CellTiter Glo; class symbols; read-out: HCC827 IC50
Experimental: (§34) Test 3 H1975 and HCC827 Cells Proliferation Assay
(§35) a) The medium was preheated in a 37° C. water bath in advance.
as §2
(§36) c) Transfer the cell suspension to a 15 mL centrifuge tube containing 8 mL medium, centrifuge 1000 rpm, 5 min.
as §4, §6, §7, §8
(§37) b) Cells were seeded to 96-well cell culture plate with density at 2000 cells/well (suitable for H1975 cell) and at 2500 cells/well (suitable for HCC827 cell);
as §10, §11, §12, §13, §14, §15, §16
(§38) Y=Bottom+(Top−Bottom)/(1+10^((Log IC50−X)*HillSlope));
as §18

[4] = target: T1, Ba/F3-L858R/T790M/C797S (Homo sapiens, UniProt P00533, T790M/C797S/L858R, cells depend on it); test: Ba/F3-L858R/T790M/C797S cells proliferation assay; assay type: cell-based; conditions: cell proliferation, 72 h, CellTiter Glo; class symbols; read-out: BaF3 L858R/T790M/C797S IC50
T1 construct: BaF3 L858R/T790M/C797S IC50; other: cell proliferation, 72 h, CellTiter Glo; class symbols; numeric values
T1 sequence (P00533 whole entry T790M/C797S/L858R): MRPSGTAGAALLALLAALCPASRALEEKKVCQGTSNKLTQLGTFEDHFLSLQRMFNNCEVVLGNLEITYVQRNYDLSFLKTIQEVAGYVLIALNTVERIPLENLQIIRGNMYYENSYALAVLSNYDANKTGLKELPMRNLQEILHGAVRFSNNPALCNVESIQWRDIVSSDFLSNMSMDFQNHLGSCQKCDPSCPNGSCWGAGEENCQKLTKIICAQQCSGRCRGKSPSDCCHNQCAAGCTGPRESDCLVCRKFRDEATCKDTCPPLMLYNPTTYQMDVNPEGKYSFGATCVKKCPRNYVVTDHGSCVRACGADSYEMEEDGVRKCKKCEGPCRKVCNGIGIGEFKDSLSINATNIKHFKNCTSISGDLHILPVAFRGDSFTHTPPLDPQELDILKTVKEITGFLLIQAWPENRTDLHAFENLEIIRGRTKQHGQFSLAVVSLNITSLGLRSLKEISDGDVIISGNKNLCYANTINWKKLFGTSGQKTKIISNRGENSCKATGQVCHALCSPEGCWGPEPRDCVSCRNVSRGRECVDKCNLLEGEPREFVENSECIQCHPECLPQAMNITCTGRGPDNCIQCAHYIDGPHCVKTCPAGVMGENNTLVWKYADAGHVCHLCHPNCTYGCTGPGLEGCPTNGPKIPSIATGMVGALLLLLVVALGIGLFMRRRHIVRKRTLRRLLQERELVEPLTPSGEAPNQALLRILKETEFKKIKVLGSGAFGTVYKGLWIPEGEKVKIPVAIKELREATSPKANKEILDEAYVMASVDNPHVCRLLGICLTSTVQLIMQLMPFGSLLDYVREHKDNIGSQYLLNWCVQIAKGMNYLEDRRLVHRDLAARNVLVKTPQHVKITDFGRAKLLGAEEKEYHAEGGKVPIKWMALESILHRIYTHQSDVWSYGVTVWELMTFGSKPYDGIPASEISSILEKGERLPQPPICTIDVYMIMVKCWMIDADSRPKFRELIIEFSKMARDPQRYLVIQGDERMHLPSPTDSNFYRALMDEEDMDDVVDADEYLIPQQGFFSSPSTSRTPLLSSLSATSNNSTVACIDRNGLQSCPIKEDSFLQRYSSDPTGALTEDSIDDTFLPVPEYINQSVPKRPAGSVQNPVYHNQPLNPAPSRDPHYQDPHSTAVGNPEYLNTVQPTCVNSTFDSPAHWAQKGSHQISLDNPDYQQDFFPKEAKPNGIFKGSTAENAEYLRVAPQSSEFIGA
Experimental: as §1, §2, §3, §4, §5, §6, §7, §8, §9, §10, §11, §12, §13, §14, §15, §16, §17, §18

[5] = system: H1975(L858R/T790M); test: H1975 cells proliferation assay; assay type: cell-based; conditions: Homo sapiens, NCI-H1975; cell proliferation, 72 h, CellTiter Glo; class symbols; read-out: H1975 IC50
Experimental: as §34, §35, §2, §36, §4, §6, §7, §8, §37, §10, §11, §12, §13, §14, §15, §16, §38, §18

[6] = target: EGFR T790M/L858R (Homo sapiens, UniProt P00533, L858R/T790M); test: Kinase assay (mobility shift) for EGFR T790M/L858R; assay type: biochemical
Experimental: as §19, §20, §21, §22, §23, §24, §25, §26, §27, §28, §29, §30, §31, §32, §33

[7] = target: EGFR L858R (Homo sapiens, UniProt P00533, L858R); test: Kinase assay (mobility shift) for EGFR L858R; assay type: biochemical
Chain of EGFR L858R (P00533 25-1210 L858R): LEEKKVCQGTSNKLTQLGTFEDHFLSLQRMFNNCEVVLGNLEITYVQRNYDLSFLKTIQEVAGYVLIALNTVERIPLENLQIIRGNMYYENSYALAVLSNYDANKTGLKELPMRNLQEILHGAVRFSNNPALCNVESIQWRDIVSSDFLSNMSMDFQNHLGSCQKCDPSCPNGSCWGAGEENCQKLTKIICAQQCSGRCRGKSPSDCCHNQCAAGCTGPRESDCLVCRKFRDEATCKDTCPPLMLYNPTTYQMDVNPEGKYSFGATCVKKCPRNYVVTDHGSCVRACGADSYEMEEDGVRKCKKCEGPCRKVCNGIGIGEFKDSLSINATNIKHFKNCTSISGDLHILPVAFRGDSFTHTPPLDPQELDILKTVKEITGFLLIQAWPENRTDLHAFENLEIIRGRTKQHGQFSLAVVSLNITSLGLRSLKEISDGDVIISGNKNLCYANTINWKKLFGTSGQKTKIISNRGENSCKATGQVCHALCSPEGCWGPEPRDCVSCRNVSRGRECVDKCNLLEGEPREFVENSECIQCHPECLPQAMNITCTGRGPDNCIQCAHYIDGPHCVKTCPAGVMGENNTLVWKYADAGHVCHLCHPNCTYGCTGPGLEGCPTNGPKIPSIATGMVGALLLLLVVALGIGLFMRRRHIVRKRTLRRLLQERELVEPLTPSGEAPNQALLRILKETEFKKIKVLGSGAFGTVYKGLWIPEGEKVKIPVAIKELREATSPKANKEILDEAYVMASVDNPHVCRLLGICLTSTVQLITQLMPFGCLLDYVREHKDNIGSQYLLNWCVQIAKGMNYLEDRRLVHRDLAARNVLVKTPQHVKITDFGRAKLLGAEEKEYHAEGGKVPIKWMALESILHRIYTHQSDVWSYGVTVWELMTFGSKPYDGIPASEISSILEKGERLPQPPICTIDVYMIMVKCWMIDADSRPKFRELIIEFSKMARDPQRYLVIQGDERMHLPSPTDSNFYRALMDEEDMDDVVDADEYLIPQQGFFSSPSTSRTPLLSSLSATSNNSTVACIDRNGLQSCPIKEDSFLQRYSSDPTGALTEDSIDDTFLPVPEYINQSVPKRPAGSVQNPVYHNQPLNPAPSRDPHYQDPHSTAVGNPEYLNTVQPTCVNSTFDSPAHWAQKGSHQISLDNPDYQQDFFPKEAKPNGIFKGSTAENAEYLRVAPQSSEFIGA
Experimental: as §19, §20, §21, §22, §23, §24, §25, §26, §27, §28, §29, §30, §31, §32, §33

Chain of Ba/F3-Δ19del/T790M/C797S (P00533 with tags, fused parts or gaps DEL746-750/T790M/C797S, form open): as the sequence (P00533 with tags, fused parts or gaps DEL746-750/T790M/C797S, form open) above

SMILES | GI50 [1] [nM] | pIC50 [2] | pIC50 [3] | GI50 [4] [nM] | pIC50 [5] | pIC50 [6] | pIC50 [7]
C=C(C)C(=O)Nc1cc(Nc2ncc(Cl)c(Nc3ccccc3P(C)(C)=O)n2)ccc1N1CCC2(CC1)CC(N(C)C)C2 [Compound 7, N-(5-((5-chloro-4-((2-(dimethylphosphoryl)phenyl)amino)pyrimidin-2-yl)amino)-2-(2-(dimethylamino)-7-azaspiro[3.5]nonan-7-yl)phenyl)methacrylamide] | 10 to 50 | > 8.00 | 7.30 to 8.00 | 10 to 50 |  |  | 
C=C(F)C(=O)Nc1cc(Nc2ncc(Cl)c(Nc3ccccc3P(C)(C)=O)n2)ccc1N1CCC2(CC1)CC(N(C)C)C2 [Compound 9, N-(5-((5-chloro-4-((2-(dimethylphosphoryl)phenyl)amino)pyrimidin-2-yl)amino)-2-(2-(dimethylamino)-7-azaspiro[3.5]nonan-7-yl)phenyl)-2-fluoroacrylamide] | 10 to 50 | > 8.00 |  | 10 to 50 |  |  | 
C=CC(=O)Nc1cc(Nc2ncc(Cl)c(Nc3ccc4nccnc4c3P(C)(C)=O)n2)c(OC)cc1N1CCC2(CC1)CC(N(C)C)C2 [Compound 11, N-(5-((5-chloro-4-((5-(dimethylphosphoryl)quinoxalin-6-yl)amino)pyrimidin-2-yl)amino)-2-(2-(dimethylamino)-7-azaspiro[3.5]nonan-7-yl)-4-methoxyphenyl)acrylamide] | 10 to 50 | > 8.00 | 7.30 to 8.00 |  | 7.30 to 8.00 |  | 
C=CC(=O)Nc1cc(Nc2ncc(Br)c(Nc3ccc4nccnc4c3P(C)(C)=O)n2)ccc1N1CCC(N2CCN(C)CC2)CC1 [Compound 12, N-(5-((5-bromo-4-((5-(dimethylphosphoryl)quinoxalin-6-yl)amino)pyrimidin-2-yl)amino)-2-(4-(4-methylpiperazin-1-yl)piperidin-1-yl)phenyl)acrylamide] | 10 to 50 |  | 7.30 to 8.00 | 10 to 50 | 7.30 to 8.00 |  | 
C=CC(=O)Nc1cc(Nc2ncc(C)c(Nc3ccccc3P(C)(C)=O)n2)ccc1N1CCC(N2CCN(C)CC2)CC1 [Compound 20, N-(5-((4-((2-(dimethylphosphoryl)phenyl)amino)-5-methylpyrimidin-2-yl)amino)-2-(4-(4-methylpiperazin-1-yl)piperidin-1-yl)phenyl)acrylamide] | 10 to 50 | > 8.00 | > 8.00 |  | 7.30 to 8.00 | > 8.00 | > 8.00
C=CC(=O)Nc1cc(Nc2ncc(Cl)c(Nc3ccccc3P(C)(C)=O)n2)c(OC)cc1N1CCC2(CCC(N(C)C)CC2)CC1 [Compound 33, N-(5-(5-chloro-4-(2-(dimethylphosphoryl)phenylamino)pyrimidin-2-ylamino)-2-(9-(dimethylamino)-3-azaspiro[5.5]undecan-3-yl)-4-methoxyphenyl)acrylamide] |  | > 8.00 | 7.30 to 8.00 |  | 7.30 to 8.00 | > 8.00 | 7.00 to 8.00

The remaining lines, values ahead:

GI50 [1] [nM] | pIC50 [2] | pIC50 [3] | GI50 [4] [nM] | pIC50 [5] | pIC50 [6] | pIC50 [7] | SMILES
10 to 50 | > 8.00 |  |  |  |  |  | C=CC(=O)N(C)c1cc(Nc2ncc(Cl)c(Nc3ccccc3P(C)(C)=O)n2)ccc1N1CCC2(CC1)CC(N(C)C)C2 [Compound 6, N-(5-((5-chloro-4-((2-(dimethylphosphoryl)phenyl)amino)pyrimidin-2-yl)amino)-2-(2-(dimethylamino)-7-azaspiro[3.5]nonan-7-yl)phenyl)-N-methylacrylamide]
10 to 50 | > 8.00 | > 8.00 |  | 7.30 to 8.00 | > 8.00 | > 8.00 | C=CC(=O)Nc1cc(Nc2ncc(C)c(Nc3ccccc3P(C)(C)=O)n2)ccc1N(C)CCN(C)C [Compound 19, N-(2-((2-(dimethylamino)ethyl)(methyl)amino)-5-((4-((2-(dimethylphosphoryl)phenyl)amino)-5-methylpyrimidin-2-yl)amino)phenyl)acrylamide hydrochloric acid salt]
 | 7.00 to 8.00 | > 8.00 |  | 7.30 to 8.00 | > 8.00 | > 8.00 | C=CC(=O)Nc1cc(Nc2ncc(C)c(Nc3ccccc3P(C)(C)=O)n2)c(OC)cc1N(C)CCN(C)C [Compound 21, N-(2-((2-(dimethylamino)ethyl)(methyl)amino)-5-((4-((2-(dimethylphosphoryl)phenyl)amino)-5-methylpyrimidin-2-yl)amino)-4-methoxyphenyl)acrylamide]
10 to 50 | > 8.00 | 7.30 to 8.00 |  |  | > 8.00 | 7.00 to 8.00 | C=CC(=O)Nc1cc(Nc2ncc(F)c(Nc3ccccc3P(C)(C)=O)n2)ccc1N1CCC(N2CCN(C)CC2)CC1 [Compound 29, N-(5-((4-((2-(dimethylphosphoryl)phenyl)amino)-5-fluoropyrimidin-2-yl)amino)-2-(4-(4-methylpiperazin-1-yl)piperidin-1-yl)phenyl)acrylamide]
 | 7.00 to 8.00 | > 8.00 |  | 7.30 to 8.00 | > 8.00 | > 8.00 | C=CC(=O)Nc1cc(Nc2ncc(F)c(Nc3ccccc3P(C)(C)=O)n2)ccc1N(C)CCN(C)C [Compound 32, N-(2-((2-(dimethylamino)ethyl)(methyl)amino)-5-(4-(2-(dimethylphosphoryl)phenylamino)-5-fluoropyrimidin-2-ylamino)phenyl)acrylamide]
 | 7.00 to 8.00 | > 8.00 |  | 7.30 to 8.00 | > 8.00 | > 8.00 | C=CC(=O)Nc1cc(Nc2nccc(Nc3ccccc3P(C)(C)=O)n2)ccc1N(C)CCN(C)C [Compound 37, N-(2-((2-(dimethylamino)ethyl)(methyl)amino)-5-((4-((2-(dimethylphosphoryl)phenyl)amino)pyrimidin-2-yl)amino)phenyl)acrylamide]
 | > 8.00 | 7.30 to 8.00 |  | 7.30 to 8.00 | > 8.00 | 7.00 to 8.00 | C=CC(=O)Nc1cc(Nc2ncc(Cl)c(Nc3ccccc3P(C)(C)=O)n2)ccc1OC1CCN(C)CC1 [Compound 41, N-(5-((5-chloro-4-((2-(dimethylphosphoryl)phenyl)amino)pyrimidin-2-yl)amino)-2-((1-methylpiperidin-4-yl)oxy)phenyl)acrylamide]
